Patent US20130096123A1, “RADIATION SENSITISER COMPOSITIONS” (EUPHARMA PTY LTD, priority 2010, published 2013)
Values after ≈ are worked out from the molar mass of the structure shown.

Assays:
physchem = format: physicochemical
Description: A large number of these exist but in this formulation Hydroxypropyl beta Cyclodextrin (HPbCD) is used. HPbCD also assists masking the taste of the drug.
A solubility increase of above 10 fold is achieved and the room temperature solubility of nimorazole may be increased to the more dose convenient level of 100 mg/ml.
HPbCD complexes with nimorazole over a wide molar ratio, in this example the lower ratio of […] is used, therefore 226 g of nimorazole is used with 1400 g of HPbCD.

[1] = cited from earlier work

O=[N+]([O-])c1cncn1CCN1CCOCC1 [Nimorazole, nimorazole]
solubility increase (physchem): above 10 fold | solubility (physchem; aqueous with cosolvent or surfactant or cyclodextrin): 100 mg/mL (≈ 442 mM) | pKa [1]: 5.2
